# Target: T1, bovine eNOS (Bos taurus, UniProt P29473)
# T1 construct: Full-length recombinant rat nNOS, mouse iNOS, bovine eNOS; made in house; host or cells: Escherichia coli
# Test: NOS inhibition, oxyhemoglobin (hemoglobin capture) test, recombinant eNOS
# Type: biochemical
# Details: dipeptide-like series; recombinant enzyme, 10 µM arginine, triplicate; NI = <50% inhibition at 100 μM; read-out: IC50 (μM) eNOS (Bovine)
# Procedure: The inhibitory effects of all compounds against the three recombinant NOSs (rat nNOS, mouse iNOS, and bovine eNOS) were evaluated in 96-well plates using the oxyhemoglobin test [53].
# NOS catalytic activity was measured using the hemoglobin capture assay [53]. The test was performed at 30 °C in 96-well microplates using a final volume of 200 µL. The assay mixture contained 100 µM NADPH, 10 µM BH4, 6 µM HbO2, 100 µM DTT, 5 µM FAD, 5 µM FMN, 10 µM (nNOS and eNOS), or 20 µM (iNOS) arginine, all in a 100 mM Hepes buffer, pH 7.5, and, for constitutive n- and e-NOS, 10 µg/mL calmodulin, and 1 mM CaCl2. The studied compounds were introduced as 2 μL of ×100 concentrated solutions in DMSO, and the control experiments were performed with DMSO or the buffer only. The kinetics of NO production were measured at 401 nm using an Infinite F500 microplate reader (Tecan, Singapore).
# T1 sequence (P29473 whole entry): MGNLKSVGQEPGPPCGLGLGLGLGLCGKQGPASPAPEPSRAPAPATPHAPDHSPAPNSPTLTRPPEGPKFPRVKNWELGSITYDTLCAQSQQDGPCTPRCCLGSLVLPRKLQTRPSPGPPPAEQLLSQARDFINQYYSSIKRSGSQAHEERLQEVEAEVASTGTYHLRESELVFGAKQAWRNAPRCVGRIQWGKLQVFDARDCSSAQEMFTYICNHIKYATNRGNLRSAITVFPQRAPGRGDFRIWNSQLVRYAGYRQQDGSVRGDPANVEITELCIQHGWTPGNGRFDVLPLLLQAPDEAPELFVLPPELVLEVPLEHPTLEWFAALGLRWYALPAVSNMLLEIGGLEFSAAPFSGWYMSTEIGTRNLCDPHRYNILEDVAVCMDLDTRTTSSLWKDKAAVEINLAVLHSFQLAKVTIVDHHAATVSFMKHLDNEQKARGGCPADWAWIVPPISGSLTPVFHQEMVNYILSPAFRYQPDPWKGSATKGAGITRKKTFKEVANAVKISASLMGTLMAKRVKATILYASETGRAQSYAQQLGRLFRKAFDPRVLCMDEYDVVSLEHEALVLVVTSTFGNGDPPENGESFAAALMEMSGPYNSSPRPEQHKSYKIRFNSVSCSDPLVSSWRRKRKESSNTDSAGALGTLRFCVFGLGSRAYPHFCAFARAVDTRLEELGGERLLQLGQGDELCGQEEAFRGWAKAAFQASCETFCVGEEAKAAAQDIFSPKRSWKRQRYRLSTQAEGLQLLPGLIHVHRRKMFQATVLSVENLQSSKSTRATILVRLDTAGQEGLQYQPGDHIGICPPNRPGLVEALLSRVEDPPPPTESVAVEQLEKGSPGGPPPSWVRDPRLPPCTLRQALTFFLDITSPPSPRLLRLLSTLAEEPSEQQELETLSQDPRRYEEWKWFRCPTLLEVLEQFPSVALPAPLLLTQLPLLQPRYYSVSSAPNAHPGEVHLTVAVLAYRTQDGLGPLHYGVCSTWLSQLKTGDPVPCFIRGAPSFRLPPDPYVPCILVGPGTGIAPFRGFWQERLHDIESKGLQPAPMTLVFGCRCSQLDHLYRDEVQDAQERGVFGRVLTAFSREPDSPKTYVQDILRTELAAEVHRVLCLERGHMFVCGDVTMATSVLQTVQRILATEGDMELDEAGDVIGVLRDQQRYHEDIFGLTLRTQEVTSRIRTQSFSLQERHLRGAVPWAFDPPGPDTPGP
row,Structure (SMILES),inhibition at 100 µM [%]
1,CCSC(=N)NCCC[C@H](N)C(=O)N[C@H]1CCCN(Cc2ccccc2)C1 [Compound 7],< 50
2,CCSC(=N)NCCC[C@H](N)C(=O)N[C@H]1CCCN(Cc2ccc(Cl)c(C(F)(F)F)c2)C1 [Compound 17],< 50
3,CCSC(=N)NCCC[C@H](N)C(=O)N[C@H]1CCCN(Cc2cccc(-c3cccc(C(=O)O)c3)c2)C1 [Compound 27],< 50

# Target: T2, rat nNOS (Rattus norvegicus, UniProt P29476)
# T2 construct: Full-length recombinant rat nNOS, mouse iNOS, bovine eNOS; made in house; host or cells: Escherichia coli
# Test: NOS inhibition, oxyhemoglobin (hemoglobin capture) test, recombinant nNOS
# Type: biochemical
# Details: dipeptide-like series; recombinant enzyme, 10 µM arginine, triplicate; NI = <50% inhibition at 100 μM
# Procedure, shortened: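 Full-length E. coli-expressed recombinant enzyme; NO formation followed kinetically at 401 nm via oxyhemoglobin capture at 30 °C in 100 mM Hepes pH 7.5 with NADPH, BH4, FAD, FMN, DTT; arginine 20 µM (iNOS) or 10 µM (nNOS, plus calmodulin and CaCl2). Screened at 100 and 10 μM; IC50 if >50% inhibition at 100 μM.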
# T2 sequence (P29476 whole entry): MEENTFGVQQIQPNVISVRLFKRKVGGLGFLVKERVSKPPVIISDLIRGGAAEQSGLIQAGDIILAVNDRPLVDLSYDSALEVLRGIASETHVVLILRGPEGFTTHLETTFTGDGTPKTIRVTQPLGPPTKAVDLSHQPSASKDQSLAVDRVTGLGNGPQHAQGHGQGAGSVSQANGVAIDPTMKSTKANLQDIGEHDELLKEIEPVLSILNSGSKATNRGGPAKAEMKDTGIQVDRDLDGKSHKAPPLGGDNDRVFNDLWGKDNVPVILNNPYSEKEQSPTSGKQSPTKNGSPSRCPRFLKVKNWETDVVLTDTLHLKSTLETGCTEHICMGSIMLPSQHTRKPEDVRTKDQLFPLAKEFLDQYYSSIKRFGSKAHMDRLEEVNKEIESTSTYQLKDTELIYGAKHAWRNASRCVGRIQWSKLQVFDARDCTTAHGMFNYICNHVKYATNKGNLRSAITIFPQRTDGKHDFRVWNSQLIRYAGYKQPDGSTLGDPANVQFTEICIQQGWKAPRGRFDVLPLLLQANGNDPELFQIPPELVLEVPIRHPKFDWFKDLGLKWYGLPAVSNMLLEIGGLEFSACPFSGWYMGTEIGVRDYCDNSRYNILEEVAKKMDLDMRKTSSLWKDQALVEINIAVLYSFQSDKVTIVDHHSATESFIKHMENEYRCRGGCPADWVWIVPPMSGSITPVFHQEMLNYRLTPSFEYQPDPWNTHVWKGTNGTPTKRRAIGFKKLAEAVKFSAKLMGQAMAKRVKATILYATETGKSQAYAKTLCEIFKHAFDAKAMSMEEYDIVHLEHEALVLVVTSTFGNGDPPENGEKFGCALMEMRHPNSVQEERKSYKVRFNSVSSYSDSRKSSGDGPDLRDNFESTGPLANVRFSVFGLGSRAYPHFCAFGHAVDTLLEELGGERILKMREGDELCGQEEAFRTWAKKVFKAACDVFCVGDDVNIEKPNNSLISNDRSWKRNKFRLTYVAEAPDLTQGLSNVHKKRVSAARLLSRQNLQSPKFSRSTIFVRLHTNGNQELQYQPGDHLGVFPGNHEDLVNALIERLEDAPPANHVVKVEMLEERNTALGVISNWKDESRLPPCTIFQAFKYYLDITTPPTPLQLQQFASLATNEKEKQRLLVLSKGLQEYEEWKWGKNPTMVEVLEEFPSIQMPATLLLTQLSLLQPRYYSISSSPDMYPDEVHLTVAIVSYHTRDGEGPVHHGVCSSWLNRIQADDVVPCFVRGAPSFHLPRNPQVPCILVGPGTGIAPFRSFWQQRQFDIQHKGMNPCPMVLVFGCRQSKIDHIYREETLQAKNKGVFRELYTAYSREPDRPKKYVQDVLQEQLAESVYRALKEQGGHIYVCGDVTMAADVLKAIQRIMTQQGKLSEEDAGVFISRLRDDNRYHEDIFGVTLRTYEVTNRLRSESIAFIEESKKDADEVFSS
row,Structure (SMILES),IC50 [µM]
1,CCSC(=N)NCCC[C@H](N)C(=O)N[C@H]1CCCN(Cc2ccccc2)C1 [Compound 7],17.5
2,CCSC(=N)NCCC[C@H](N)C(=O)N[C@H]1CCCN(Cc2ccc(Cl)c(C(F)(F)F)c2)C1 [Compound 17],5
3,CCSC(=N)NCCC[C@H](N)C(=O)N[C@H]1CCCN(Cc2cccc(-c3cccc(C(=O)O)c3)c2)C1 [Compound 27],9.5

# Target: T3, oxygenase domain of nNOS (nNOSoxy) (Rattus norvegicus, UniProt P29476)
# T3 construct: the oxygenase domain of nNOS (nNOSoxy) and iNOS (iNOSoxy); made in house; host or cells: Escherichia coli
# Test: UV-visible difference spectroscopy titration of nNOSoxy
# Type: binding
# Details: UV/Vis difference spectroscopy, ± SD, three experiments; read-out: Apparent equilibrium constant Ks nNOSoxy
# From the text: (§1) We performed UV–visible difference spectroscopy to analyze the interaction mode of some inhibitors with the heme-active site of NOS [54]. We have studied the effects of dipeptide-like compounds 7, 17, 19, 23, and 27 and 1,2,4-oxadiazole 35 on the UV–visible spectra of the oxygenase domain of nNOS (nNOSoxy) and iNOS (iNOSoxy). As expected, when added stepwise to n- and iNOSoxy, all selected compounds elicited different spectra with a trough at ~425 nm and a peak at ~395 nm, similar to the substrate L-arginine. This profile is characteristic of type I interactions, meaning that they are bound in close proximity to the heme prosthetic group and shifted the spin state equilibrium to the pentacoordinated heme–Fe^III state. Double reverse plotting of the differences in absorbance between the peak at ~395 nm and valley at ~425 nm (ΔA395–425 nm) as a function of the concentration of the added compounds allowed calculating apparent binding constants (Ks) (Table 3). The reference inhibitor SEITU [55] tightly bound both NOS isoforms with high affinity but no selectivity. With the exception of the dipeptide-like 27 and the heterocyclic analog 35, which similarly interacted with both proteins, other compounds preferentially bound nNOSoxy over iNOSoxy with apparent affinities close to SEITU for this isoform.
# (§2) Full-length recombinant rat nNOS, mouse iNOS, bovine eNOS, and the heme domains of rat brain nNOS and mouse iNOS were expressed in Escherichia coli and purified as described previously.
# (§3) This study was performed as previously described.
# T3 sequence (P29476 1-720 limits assumed): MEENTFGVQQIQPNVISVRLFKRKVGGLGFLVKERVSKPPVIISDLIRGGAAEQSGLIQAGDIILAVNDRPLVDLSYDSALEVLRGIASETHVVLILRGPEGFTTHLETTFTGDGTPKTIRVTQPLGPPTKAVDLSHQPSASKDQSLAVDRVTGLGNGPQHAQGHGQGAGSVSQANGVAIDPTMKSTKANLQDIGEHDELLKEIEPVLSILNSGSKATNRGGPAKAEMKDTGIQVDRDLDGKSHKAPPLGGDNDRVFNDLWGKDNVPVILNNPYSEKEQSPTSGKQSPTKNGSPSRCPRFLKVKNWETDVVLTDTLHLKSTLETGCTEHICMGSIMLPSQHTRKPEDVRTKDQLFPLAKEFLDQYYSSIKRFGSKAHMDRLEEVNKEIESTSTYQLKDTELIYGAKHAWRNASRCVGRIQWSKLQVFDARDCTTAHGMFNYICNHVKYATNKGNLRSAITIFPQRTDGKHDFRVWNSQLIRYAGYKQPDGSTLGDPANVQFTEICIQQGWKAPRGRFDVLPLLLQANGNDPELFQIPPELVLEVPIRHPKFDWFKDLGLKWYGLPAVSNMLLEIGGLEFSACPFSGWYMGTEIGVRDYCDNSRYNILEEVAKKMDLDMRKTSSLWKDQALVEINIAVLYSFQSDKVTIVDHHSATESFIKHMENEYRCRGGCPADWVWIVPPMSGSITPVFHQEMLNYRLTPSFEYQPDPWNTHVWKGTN
row,Structure (SMILES),Kd [µM]
1,CCSC(=N)NCCC[C@H](N)C(=O)N[C@H]1CCCN(Cc2ccccc2)C1 [Compound 7],7.1 ± 2.6
2,CCSC(=N)NCCC[C@H](N)C(=O)N[C@H]1CCCN(Cc2ccc(Cl)c(C(F)(F)F)c2)C1 [Compound 17],3.6 ± 1.5
3,CCSC(=N)NCCC[C@H](N)C(=O)N[C@H]1CCCN(Cc2cccc(-c3cccc(C(=O)O)c3)c2)C1 [Compound 27],70.6 ± 22.8

# Target: T4, oxygenase domain of iNOS (iNOSoxy) (Mus musculus, UniProt P29477)
# T4 construct: the oxygenase domain of nNOS (nNOSoxy) and iNOS (iNOSoxy); made in house; host or cells: Escherichia coli
# T4 sequence (P29477 1-498 limits assumed): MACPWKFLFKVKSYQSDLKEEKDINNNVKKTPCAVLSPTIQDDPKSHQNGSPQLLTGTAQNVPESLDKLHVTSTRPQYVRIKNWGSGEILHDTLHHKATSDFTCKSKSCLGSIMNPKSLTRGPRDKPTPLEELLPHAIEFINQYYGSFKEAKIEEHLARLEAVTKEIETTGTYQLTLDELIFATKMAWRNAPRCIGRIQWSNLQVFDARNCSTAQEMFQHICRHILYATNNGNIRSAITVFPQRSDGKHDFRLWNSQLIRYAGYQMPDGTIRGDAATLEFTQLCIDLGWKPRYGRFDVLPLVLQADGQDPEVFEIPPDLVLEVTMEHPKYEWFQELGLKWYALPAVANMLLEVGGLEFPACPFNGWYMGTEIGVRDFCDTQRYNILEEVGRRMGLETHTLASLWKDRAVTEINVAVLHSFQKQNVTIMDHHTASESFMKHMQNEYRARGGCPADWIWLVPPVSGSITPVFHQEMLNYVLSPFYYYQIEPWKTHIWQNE
# Test: UV-visible difference spectroscopy titration of iNOSoxy
# Type: binding
# Details: UV/Vis difference spectroscopy, ± SD, three experiments; read-out: Apparent equilibrium constant Ks iNOSoxy
# From the text: as §1, §2, §3
row,Structure (SMILES),Kd [µM]
1,CCSC(=N)NCCC[C@H](N)C(=O)N[C@H]1CCCN(Cc2ccccc2)C1 [Compound 7],406 ± 97
2,CCSC(=N)NCCC[C@H](N)C(=O)N[C@H]1CCCN(Cc2ccc(Cl)c(C(F)(F)F)c2)C1 [Compound 17],36.4 ± 4.6
3,CCSC(=N)NCCC[C@H](N)C(=O)N[C@H]1CCCN(Cc2cccc(-c3cccc(C(=O)O)c3)c2)C1 [Compound 27],57.9 ± 8

# Tested on: INS-1 cells (nNOS)
# Test: Glucose-induced insulin secretion
# Type: cell-based
# Details: 5.6 mM glucose, no IL-1β, 1 h, compounds 500 µM to 5 mM, L-NAME 5 mM
# Procedure: Indeed, pancreatic β-cells are known to constitutively express the nNOS isoform, which negatively modulates glucose-induced insulin secretion.
# The insulin-secreting cell line INS-1 (a gift from Prof. C. Wolheim, Geneva, Switzerland) was cultured in RPMI-1640 supplemented with 10% FCS, 100 units/mL penicillin, 100 µg/mL streptomycin, 2 mM L-glutamine, 10 mM HEPES, 1 mM sodium pyruvate, and […] 2-mercaptoethanol, according to M. Asfari et al.’s method.
# The functional effects of compounds were evaluated on INS-1 cells. Cells were preincubated for 1 h at 37 °C in a Krebs–Ringer bicarbonate buffer (108 mM NaCl, 1.19 mM KH2PO4, 4.74 mM KCl, 2.54 mM CaCl2, 1.19 mM MgSO4·7H2O, and 18 mM NaHCO3) containing 2 g/L BSA in the absence of glucose. After removal of the medium, the cells were stimulated for another hour at 37°C in the same buffer in the presence of 5.6 mM glucose and the presence of increasing concentrations of L-NAME or compounds (from 500 µM to 5 mM). At the end of the incubation period, the medium was collected, and the insulin was measured using an insulin high-range assay kit (CisBio, Codolet, France). Data are expressed as means ± SEM of the experiments (indicated in the result part).
row,Structure (SMILES),Effect on insulin secretion
1,CCSC(=N)NCCC[C@H](N)C(=O)N[C@H]1CCCN(Cc2ccccc2)C1 [Compound 7],dose-dependently stimulate glucose insulin secretion with better efficiency than L-NAME
2,CCSC(=N)NCCC[C@H](N)C(=O)N[C@H]1CCCN(Cc2ccc(Cl)c(C(F)(F)F)c2)C1 [Compound 17],dose-dependently stimulate glucose insulin secretion with better efficiency than L-NAME
3,CCSC(=N)NCCC[C@H](N)C(=O)N[C@H]1CCCN(Cc2cccc(-c3cccc(C(=O)O)c3)c2)C1 [Compound 27],dose-dependently stimulate glucose insulin secretion with better efficiency than L-NAME

# — paper PMC10343299, “S-Ethyl-Isothiocitrullin-Based Dipeptides and 1,2,4-Oxadiazole Pseudo-Dipeptides: Solid Phase Synthesis and Evaluation as NO Synthase Inhibitors” (Molecules, 2023)
